Source: US7053194B2, “Compositions and methods for p53-mediated repression of gene expression” (Fox Chase Cancer Center, priority 1999, dated 2006)

Legend:
[1] = tested on: MCF7 cells; assay: Cyclin-dependent kinase assays; assay type: cell-based, human; settings: MCF7 treated with doxorubicin
Method: Cyclin-dependent kinase assays were performed essentially as described (Harper et al., 1993), using 250 ug of whole cell extract immunoprecipitated with 0.5 ug of polyclonal antisera to cdk2 (Santa Cruz Biotechnology), cyclin E and cyclin A. Following immunoprecipitation and washing, 1 ug of histone H1 (Sigma) was used as a substrate, in kinase reaction buffer (20 mM Tris pH 7.4/7.5 mM MgCl2/1 mM DTT), supplemented with 5 mM sodium fluoride, 1 mM sodium ortho-vanadate, and 125 ng/uL cAMP-dependent protein kinase inhibitor (Sigma). 0.5 uL of ^32P-ATP (NEN, 800 Ci/mmol) was added to each reaction, and 0.5 ug of normal rabbit IgG (Sigma) was used as a negative control. Following incubation at 37 degrees for 20 minutes, reactions were boiled in Laemmli sample buffer and loaded onto 10% SDS-PAGE. Cells for flow cytometry were fixed in ethanol and stained with propidium iodide as described (Murphy et al., Genes & Devel. 10:2971–2980, 1996) and analyzed on a Becton Dickinson FacScan. G1, S (synthesis) and G2/M populations were calculated using the program CellQuest.
This finding is consistent with flow cytometry data, which indicate that these cells are arrested in G2/M (not shown). As a negative control, normal rabbit IgG is used instead of polyclonal antisera for the immunoprecipitations and kinase assays (lanes 1 and 4).

[2] = tested on: Saos2 (p53-null) and U20S (wt p53); assay: Western analysis of survivin after doxorubicin in osteosarcoma lines; assay type: cell-based, human; settings: Saos2 (p53-null) versus U20S (wt p53), doxorubicin treatment
Method: (§1) MCF-7 cells were maintained in RPMI-1640 supplemented with 10% fetal bovine serum and 100 units/ml of penicillin and streptomycin. The human melanoma cell line CaCl, and the derivative clone expressing the HPV E6 gene, were cultured as described (Ahn et al., Oncogene). The human osteosarcoma cell lines Saos-2 and U2-OS (kindly provided by Peter Adams, Fox Chase Cancer Center), the murine p21 knock-out fibroblasts (kindly provided by James Sherley, MIT) and the human lung adenocarcinoma cell line H1299 were cultured in DMEM supplemented with 10% fetal bovine serum and 100 units/ml of penicillin and streptomycin. […] For treatment with ultra-violet light, cells were irradiated with 0–10 J/m2 (as noted) of UV-C with a Spectroline X series ultraviolet lamp, and output was monitored with a traceable UV light meter (Fisher Scientific). For drug treatment, cells were treated with 0.5ug/ml adriamycin (doxorubicin, Sigma), or dilution vehicle alone, for twenty-four hours. p53 induction was monitored by western analysis of 100 ug protein as described (Murphy et al., Genes & Devel. 10:2971–2980, 1996), using 0.1ug/ml DO-1 (Ab-6, Calbiochem) or 421 (Ab-1, Calbiochem.
(§2) Western analysis was performed essentially as described (Murphy et al., 1999). […] Protein concentrations were determined using the Bio-Rad Dc Protein Assay (Bio-Rad). […]

[3] = tested on: CaCl and CaCl/E6; assay: Western analysis of survivin after doxorubicin in melanoma line with or without HPV E6; assay type: cell-based, human; settings: CaCl versus CaCl/E6, doxorubicin treatment
Method: as §1, §2

[4] = tested on: H1299 human lung adenocarcinoma; assay: Northern analysis of stathmin mRNA in p53-null cells; assay type: cell-based; settings: H1299, null for p53

COc1cccc2c1C(=O)c1c(O)c3c(c(O)c1C2=O)C[C@@](O)(C(=O)CO)C[C@@H]3O[C@H]1C[C@H](N)[C@H](O)[C@H](C)O1 [adriamycin, doxorubicin]
cdk2, cyclin A and cyclin E kinase activities [1]: all activities are low
cell cycle arrest [1]: arrest in G2/M phase
survivin protein levels [2]: decreased survivin protein levels only in cells with wt p53 (U20S)
survivin protein levels [3]: down-regulation of survivin protein levels only in parental CaCl cells
effect on stathmin levels [4]: neither TSA nor adriamycin had any effect on stathmin levels
